Test results reported in US11267861B2, “Peptide-oligourea foldamer compounds and methods of their use” (UREKA SARL, priority 2016, dated 2022).
Values after ≈ are worked out from the molar mass of the structure shown.

How the values were obtained:
human glucagon receptor = biological target: T1, human glucagon receptor (Homo sapiens, UniProt P47871); test: Glucagon functional assay: agonist activity by cAMP production (HTRF) in transfected CHO cells; format: cell-based; settings: cAMP production, transfected CHO cells, 10 minutes at 37° C.
T1 construct: expressed in transfected cells; host or cells: CHO cells
T1 sequence (P47871 26-477): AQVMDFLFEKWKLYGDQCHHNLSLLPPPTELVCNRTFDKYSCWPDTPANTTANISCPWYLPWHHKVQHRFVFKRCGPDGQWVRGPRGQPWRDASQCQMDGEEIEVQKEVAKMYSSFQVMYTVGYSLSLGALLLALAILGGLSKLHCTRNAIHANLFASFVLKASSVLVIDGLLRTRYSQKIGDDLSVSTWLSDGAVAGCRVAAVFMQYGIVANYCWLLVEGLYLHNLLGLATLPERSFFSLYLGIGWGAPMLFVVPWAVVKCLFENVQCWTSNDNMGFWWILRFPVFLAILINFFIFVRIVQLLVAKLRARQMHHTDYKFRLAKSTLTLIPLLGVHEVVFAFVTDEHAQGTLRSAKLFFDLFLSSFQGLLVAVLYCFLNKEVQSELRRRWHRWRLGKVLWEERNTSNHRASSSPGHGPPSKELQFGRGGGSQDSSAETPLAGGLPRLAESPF
Method: Functional Assay to Examine Bioactivity of Glucagon Receptor Agonists. Evaluation of the agonist activity of compounds at the human glucagon receptor expressed in transfected CHO cells was examined by measuring their effects on cAMP production using the HTRF detection method. […] For stimulated control measurement, separate assay wells contain 100 nM glucagon were utilized.
Following incubation, the cells were lysed and the fluorescence acceptor (D2-labeled cAMP) and fluorescence donor (anti-cAMP antibody labeled with europium cryptate) were added. […] The results are expressed as a percent of the control response to 100 nM glucagon. The standard reference agonist is glucagon, which was tested in each experiment at several concentrations to generate a concentration-response curve from which its EC50 value was calculated.
HTRF (Homogeneous Time-Resolved Fluorescence) principle. The HTRF technology is based on time resolved fluorescence energy transfer (TR-FRET), which occurs between long-lived fluorophore Europium or Terbium Cryptates, and EuK or Tb respectively, as a donor and the allophycocyanin XL665, d2 or Red as acceptor. Many compounds and proteins present in biological fluids or serum are naturally fluorescent, and the use of conventional, prompt fluorescence leads to serious limitations in assay sensitivity. The use of long-lived fluorophore combined with time-resolved detection (a delay between excitation and emission detection) minimizes prompt fluorescence interference.

[1] = Solubility of glucagon analogs (UV absorbance); format: physicochemical; settings: for solubility: 0.01M HCl solution adjusted to pH 7 with Na2HPO4, pH 7, pH adjusted to 7 with Na2HPO4, incubated overnight at 4° C.; for ratio (solubility relative to reference compound 16): relative to compound 16;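 for all read-outs here: peptide stock at 3 mg/ml in 0.01 M HCl, absorbance at 280 nm read before neutralization and again on the diluted supernatant after centrifugation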
Method: A solution of 3 mg/ml of glucagon (or analog) was prepared in a 0.01M HCl solution. Then 0.1 ml of the stock solution was diluted to 1 ml with HCl (0.01M) and the UV absorbance measured (to 280 nm) with nanodrop UV spectrometer. The pH of the remaining stock solution was adjusted to 7 using Na2HPO4, and the solution was incubated overnight at 4° C. The solution was then centrifuged three times (5 minutes, 4000 rotations per minute), 0.1 ml of the supernatant was removed and diluted to 1 ml with HCl solution (0.01M).
The final UV absorbance was measured.

CCCC[C@H](NC(=O)[C@H](CC(C)C)NC(=O)[C@H](Cc1c[nH]c2ccccc12)NC(=O)[C@H](CCC(N)=O)NC(=O)NC[C@@H](NC(=O)[C@H](Cc1ccccc1)NC(=O)[C@H](CC(=O)O)NC(=O)[C@H](CCC(N)=O)NC(=O)[C@H](C)NC(=O)[C@H](CCCNC(=N)N)NC(=O)[C@H](CCCNC(=N)N)NC(=O)[C@H](CO)NC(=O)[C@H](CC(=O)O)NC(=O)[C@H](CC(C)C)NC(=O)[C@H](Cc1ccc(O)cc1)NC(=O)[C@H](CCCCN)NC(=O)[C@H](CO)NC(=O)[C@H](Cc1ccc(O)cc1)NC(=O)[C@H](CC(=O)O)NC(=O)[C@H](CO)NC(=O)[C@@H](NC(=O)[C@H](Cc1ccccc1)NC(=O)[C@@H](NC(=O)CNC(=O)[C@H](CCC(N)=O)NC(=O)[C@H](CO)NC(=O)[C@@H](N)Cc1c[nH]cn1)[C@@H](C)O)[C@@H](C)O)C(C)C)C(=O)N[C@@H](CC(N)=O)C(=O)N[C@H](C(=O)O)[C@@H](C)O [Compound 63]
EC50 (human glucagon receptor): 30 nM | solubility [1]: 1280 µg/mL (≈ 366 µM) | ratio (solubility relative to reference compound 16) [1]: 5.1

CCCC[C@H](NC(=O)[C@H](CC(C)C)NC(=O)[C@H](Cc1c[nH]c2ccccc12)NC(=O)[C@H](CCC(N)=O)NC(=O)[C@@H](NC(=O)[C@H](Cc1ccccc1)NC(=O)[C@H](CC(=O)O)NC(=O)[C@H](CCC(N)=O)NC(=O)NC[C@H](C)NC(=O)[C@H](CCCNC(=N)N)NC(=O)[C@H](CCCNC(=N)N)NC(=O)[C@H](CO)NC(=O)[C@H](CC(=O)O)NC(=O)[C@H](CC(C)C)NC(=O)[C@H](Cc1ccc(O)cc1)NC(=O)[C@H](CCCCN)NC(=O)[C@H](CO)NC(=O)[C@H](Cc1ccc(O)cc1)NC(=O)[C@H](CC(=O)O)NC(=O)[C@H](CO)NC(=O)[C@@H](NC(=O)[C@H](Cc1ccccc1)NC(=O)[C@@H](NC(=O)CNC(=O)[C@H](CCC(N)=O)NC(=O)[C@H](CO)NC(=O)[C@@H](N)Cc1c[nH]cn1)[C@@H](C)O)[C@@H](C)O)C(C)C)C(=O)N[C@@H](CC(N)=O)C(=O)N[C@H](C(=O)O)[C@@H](C)O [Compound 54]
EC50 (human glucagon receptor): 32 nM | solubility [1]: 630 µg/mL (≈ 180 µM) | ratio (solubility relative to reference compound 16) [1]: 2.5

CCCC[C@H](NC(=O)[C@H](CC(C)C)NC(=O)NC[C@H](C)NC(=O)[C@H](CCC(N)=O)NC(=O)[C@@H](NC(=O)[C@H](Cc1ccccc1)NC(=O)[C@H](CC(=O)O)NC(=O)[C@H](CCC(N)=O)NC(=O)[C@H](C)NC(=O)[C@H](CCCNC(=N)N)NC(=O)[C@H](CCCNC(=N)N)NC(=O)[C@H](CO)NC(=O)[C@H](CC(=O)O)NC(=O)[C@H](CC(C)C)NC(=O)[C@H](Cc1ccc(O)cc1)NC(=O)[C@H](CCCCN)NC(=O)[C@H](CO)NC(=O)[C@H](Cc1ccc(O)cc1)NC(=O)[C@H](CC(=O)O)NC(=O)[C@H](CO)NC(=O)[C@@H](NC(=O)[C@H](Cc1ccccc1)NC(=O)[C@@H](NC(=O)CNC(=O)[C@H](CCC(N)=O)NC(=O)[C@H](CO)NC(=O)[C@@H](N)Cc1c[nH]cn1)[C@@H](C)O)[C@@H](C)O)C(C)C)C(=O)N[C@@H](CC(N)=O)C(=O)N[C@H](C(=O)O)[C@@H](C)O [Compound 57]
EC50 (human glucagon receptor): 22 nM | solubility [1]: 970 µg/mL (≈ 287 µM) | ratio (solubility relative to reference compound 16) [1]: 3.9

CCCC[C@H](NC(=O)[C@H](CC(C)C)NC(=O)[C@H](Cc1c[nH]c2ccccc12)NC(=O)NC[C@H](C)NC(=O)[C@@H](NC(=O)[C@H](Cc1ccccc1)NC(=O)[C@H](CC(=O)O)NC(=O)[C@H](CCC(N)=O)NC(=O)[C@H](C)NC(=O)[C@H](CCCNC(=N)N)NC(=O)[C@H](CCCNC(=N)N)NC(=O)[C@H](CO)NC(=O)[C@H](CC(=O)O)NC(=O)[C@H](CC(C)C)NC(=O)[C@H](Cc1ccc(O)cc1)NC(=O)[C@H](CCCCN)NC(=O)[C@H](CO)NC(=O)[C@H](Cc1ccc(O)cc1)NC(=O)[C@H](CC(=O)O)NC(=O)[C@H](CO)NC(=O)[C@@H](NC(=O)[C@H](Cc1ccccc1)NC(=O)[C@@H](NC(=O)CNC(=O)[C@H](CCC(N)=O)NC(=O)[C@H](CO)NC(=O)[C@@H](N)Cc1c[nH]cn1)[C@@H](C)O)[C@@H](C)O)C(C)C)C(=O)N[C@@H](CC(N)=O)C(=O)N[C@H](C(=O)O)[C@@H](C)O [Compound 56]
EC50 (human glucagon receptor): 0.072 nM | solubility [1]: 700 µg/mL (≈ 204 µM) | ratio (solubility relative to reference compound 16) [1]: 2.8

CC(C)C[C@H](NC(=O)[C@H](Cc1ccc(O)cc1)NC(=O)[C@H](CCCCN)NC(=O)[C@H](CO)NC(=O)[C@H](Cc1ccc(O)cc1)NC(=O)[C@H](CC(=O)O)NC(=O)[C@H](CO)NC(=O)[C@@H](NC(=O)[C@H](Cc1ccccc1)NC(=O)[C@@H](NC(=O)CNC(=O)[C@H](CCC(N)=O)NC(=O)[C@H](CO)NC(=O)[C@@H](N)Cc1c[nH]cn1)[C@@H](C)O)[C@@H](C)O)C(=O)N[C@@H](CC(=O)O)C(=O)N[C@@H](CO)C(=O)N[C@@H](CCCNC(=N)N)C(=O)N[C@@H](CCCNC(=N)N)C(=O)N[C@@H](C)C(=O)N[C@@H](CCC(N)=O)C(=O)N[C@@H](CC(=O)O)C(=O)N[C@@H](Cc1ccccc1)C(=O)N[C@H](C(=O)N[C@@H](CCC(N)=O)C(=O)N[C@@H](Cc1c[nH]c2ccccc12)C(=O)N[C@@H](CC(C)C)C(=O)N[C@@H](C)CNC(=O)N[C@@H](CC(N)=O)C(=O)N[C@H](C(=O)O)[C@@H](C)O)C(C)C [Compound 34]
EC50 (human glucagon receptor): 2.5 nM | solubility [1]: 860 µg/mL (≈ 249 µM) | ratio (solubility relative to reference compound 16) [1]: 3.4

CCCC[C@H](NC(=O)[C@H](CC(C)C)NC(=O)NC[C@H](Cc1c[nH]c2ccccc12)NC(=O)[C@H](CCC(N)=O)NC(=O)[C@@H](NC(=O)[C@H](Cc1ccccc1)NC(=O)[C@H](CC(=O)O)NC(=O)[C@H](CCC(N)=O)NC(=O)[C@H](C)NC(=O)[C@H](CCCNC(=N)N)NC(=O)[C@H](CCCNC(=N)N)NC(=O)[C@H](CO)NC(=O)[C@H](CC(=O)O)NC(=O)[C@H](CC(C)C)NC(=O)[C@H](Cc1ccc(O)cc1)NC(=O)[C@H](CCCCN)NC(=O)[C@H](CO)NC(=O)[C@H](Cc1ccc(O)cc1)NC(=O)[C@H](CC(=O)O)NC(=O)[C@H](CO)NC(=O)[C@@H](NC(=O)[C@H](Cc1ccccc1)NC(=O)[C@@H](NC(=O)CNC(=O)[C@H](CCC(N)=O)NC(=O)[C@H](CO)NC(=O)[C@@H](N)Cc1c[nH]cn1)[C@@H](C)O)[C@@H](C)O)C(C)C)C(=O)N[C@@H](CC(N)=O)C(=O)N[C@H](C(=O)O)[C@@H](C)O [Compound 65]
EC50 (human glucagon receptor): 1.5 nM | solubility [1]: 850 µg/mL (≈ 243 µM) | ratio (solubility relative to reference compound 16) [1]: 3.4

CCCC[C@H](NC(=O)[C@H](CC(C)C)NC(=O)[C@H](Cc1c[nH]c2ccccc12)NC(=O)[C@H](CCC(N)=O)NC(=O)[C@@H](NC(=O)[C@H](Cc1ccccc1)NC(=O)NC[C@H](CC(=O)O)NC(=O)[C@H](CCC(N)=O)NC(=O)[C@H](C)NC(=O)[C@H](CCCNC(=N)N)NC(=O)[C@H](CCCNC(=N)N)NC(=O)[C@H](CO)NC(=O)[C@H](CC(=O)O)NC(=O)[C@H](CC(C)C)NC(=O)[C@H](Cc1ccc(O)cc1)NC(=O)[C@H](CCCCN)NC(=O)[C@H](CO)NC(=O)[C@H](Cc1ccc(O)cc1)NC(=O)[C@H](CC(=O)O)NC(=O)[C@H](CO)NC(=O)[C@@H](NC(=O)[C@H](Cc1ccccc1)NC(=O)[C@@H](NC(=O)CNC(=O)[C@H](CCC(N)=O)NC(=O)[C@H](CO)NC(=O)[C@@H](N)Cc1c[nH]cn1)[C@@H](C)O)[C@@H](C)O)C(C)C)C(=O)N[C@@H](CC(N)=O)C(=O)N[C@H](C(=O)O)[C@@H](C)O [Compound 61]
EC50 (human glucagon receptor): 0.1 nM | solubility [1]: 740 µg/mL (≈ 212 µM) | ratio (solubility relative to reference compound 16) [1]: 2.9
